Where a name gives a salt, the structure may show the parent alone. Read-outs that look alike come from different tables or passages of the source. Some results are limits rather than exact numbers.

The source of these data is patent US8288410B2, “3-substituted quinolinium and 7H-indolo[2,3-c]quinolinium salts as new antiinfectives” (Florida Agricultural and Mechanical University, priority 2008, dated 2012).

The subject of one data set is Vero Cells. The data set is described as follows: Cytotoxicity, Vero cells. The data set is classed as cell-based.
Data set [1] relates to Aspergillus fumigatus ATCC 90906. Put plainly: Antifungal susceptibility testing, Aspergillus fumigatus. The data set is classed as cell-based. Conditions: for IC50: ATCC90906, read-out: A fu IC50. The gist of the method:
(§1)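 Modified NCCLS broth microdilution, samples serially diluted from 20 μg/mL top concentration, inocula per 0.5 McFarland (C. albicans in SDB or RPMI 1640; C. neoformans in SDB; A. fumigatus in YM broth or RPMI-1640 + 5% Alamar Blue). IC50 from percent growth versus concentration; MIC read visually as lowest concentration without detectable growth.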

Data set [2] has as its system Cryptococcus neoformans ATCC 90113. Put plainly: Antifungal susceptibility testing, Cryptococcus neoformans. In kind it is cell-based. A digest of the protocol:
as §1

For the next data set, the system named is MRSA. The data set is described as follows: Antibacterial susceptibility testing, MRSA. In kind it is cell-based, methicillin resistant Staphylococcus aureus. The note with it: for IC50 / MFC / MIC: Staphylococcus aureus. The gist of the method: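 MRSA, sourced from the American Type Culture Collection, was tested for susceptibility with a modified National Committee for Clinical Laboratory Standards method. DMSO sample solutions were serially diluted in saline and placed in duplicate in 96 well microplates. Broth-diluted bacterial suspensions, standardized to 0.5 McFarland, brought each well to 200 μL, with the highest test concentration at 20 μg/mL.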

Data set [3] concerns Candida albicans ATTC 90028. The data set is described as follows: Antifungal susceptibility testing, Candida albicans. The data set is classed as cell-based. The gist of the method: as §1
Where [4] appears, read: ATCC90113, Table 1, read-out: Cn IC50.
Setting [5] is: ATCC90113, Table 1, read-out: Cn MFC.
The mark [6] stands for this setting: ATCC90113, Table 1, read-out: Cn MIC.
Where [7] appears, read: ATTC90028, Table 1, read-out: Ca IC50.
Setting [8] is: ATTC90028, Table 1, read-out: Ca MFC.
Setting [9] is: ATTC90028, Table 1, read-out: Ca MIC.
The mark [10] stands for this setting: ATCC90113, Table 2, read-out: Cn IC50.
[11] abbreviates: ATCC90113, Table 2, read-out: Cn MFC.
[12] abbreviates: ATCC90113, Table 2, read-out: Cn MIC.
Setting [13] is: ATTC90028, Table 2, read-out: Ca IC50.
Setting [14] is: ATTC90028, Table 2, read-out: Ca MFC.
[15] abbreviates: ATTC90028, Table 2, read-out: Ca MIC.

With `FC(F)(F)c1ccccc1Sc1cc2ccccc2[n+](CCCCC[n+]2cc(Sc3ccccc3C(F)(F)F)cc3ccccc32)c1` [XYZ-IV-45], the melting point (usually the temperature, or range, at which the solid turns liquid) was in the range of 175 to 176 °C. Besides, the “TC50 Vero Cells” value with Vero Cells (Table 1) was “NC (NC = Not toxic at 10 μg/mL)”. Also, in data set [1], the “A fu MIC” value came out at 20 µg/mL. Moreover, in data set [1] (Table 1, Aspergillus fumigatus), the IC50 (as a rule, the concentration that gives 50% inhibition) came out at 9 µg/mL. Besides, the IC50 in data set [2] (setting [4]) was found to be 0.6 µg/mL. In addition, the MFC in data set [2] (setting [5]) is 20 µg/mL. Moreover, the MIC – broadly, the smallest concentration in the dilution series that meets the test's criterion for growth inhibition – in data set [2] (setting [6]) is 2.5 µg/mL. Moreover, in the data set on MRSA (Table 1, read-out: MRS IC50), the IC50 came to 0.95 µg/mL. Also, the MFC with MRSA (Table 1, read-out: MRS MFC) was > 20 µg/mL. For the same compound, the MIC in the data set on MRSA (Table 1, read-out: MRS MIC) came to 5 µg/mL. For the same compound, the IC50 in data set [3] (setting [7]) was > 20 µg/mL. Also, the MFC in data set [3] (setting [8]) was > 20 µg/mL. Moreover, the MIC in data set [3] (setting [9]) is > 20 µg/mL.

Consider `c1ccc(Nc2cc3ccccc3[n+](CCCCCC3CCCCC3)c2)cc1` (as salt: iodide) [JRE-3-19-1], for which the melting point was 156 to 158 °C.

With `FC(F)(F)c1cccc(Sc2cc3ccccc3[n+](CCCCC[n+]3cc(Sc4cccc(C(F)(F)F)c4)cc4ccccc43)c2)c1` [XYZ-IV-55], the melting point lay in the range of 167 to 168 °C. For the same compound, the “TC50 Vero Cells” value with Vero Cells (Table 1) was “NC (NC = Not toxic at 10 μg/mL)”. Besides, the IC50 in data set [1] (Table 1, Aspergillus fumigatus) amounted to 7.5 µg/mL. The IC50 in data set [2] (setting [4]) came to 0.95 µg/mL. For the same compound, the MFC in data set [2] (setting [5]) came out at 20 µg/mL. In data set [2] (setting [6]), the MIC is 2.5 µg/mL. The IC50 in the data set on MRSA (Table 1, read-out: MRS IC50) came to 0.8 µg/mL. The MFC with MRSA (Table 1, read-out: MRS MFC) worked out at 10 µg/mL. Further, in the data set on MRSA (Table 1, read-out: MRS MIC), the MIC was found to be 2.5 µg/mL. In data set [3] (setting [7]), the IC50 came out at 15 µg/mL. The MFC in data set [3] (setting [8]) is > 20 µg/mL. Besides, the MIC in data set [3] (setting [9]) is > 20 µg/mL.

The compound `Clc1ccc(Nc2cc3ccccc3[n+](CCCCCc3ccccc3)c2)cc1` [JRE-2-89-1] came in with a melting point of 182 to 183 °C. Also, the “TC50 Vero Cells” value with Vero Cells (Table 2) is >25 µg/mL. In data set [1], the “A fu MIC” value was 50 µg/mL. Besides, the IC50 in data set [1] (Table 2, Aspergillus fumigatus) was 10 µg/mL. Also, the IC50 in data set [2] (setting [10]) worked out at 4 µg/mL. Besides, the MFC in data set [2] (setting [11]) stood at 13 µg/mL. The MIC in data set [2] (setting [12]) is 6.3 µg/mL. The IC50 with MRSA (Table 2, read-out: MRSA IC50) amounted to 1.5 µg/mL. In addition, the MIC with MRSA (Table 2, read-out: MRSA MIC) is 3.1 µg/mL. Moreover, in data set [3] (setting [13]), the half-maximal inhibitory concentration (IC50) stood at 15 µg/mL. Also, the MFC in data set [3] (setting [14]) is > 20 µg/mL. Besides, in data set [3] (setting [15]), the MIC stood at 50 µg/mL.

In turn, `C[n+]1cccc(N(CCCCCC2CCCCC2)c2ccccc2)c1` [JRE-4-1-1] showed a melting point of 124 to 125 °C. In addition, in the data set with Vero Cells (Table 2), the “TC50 Vero Cells” value worked out at 8.3 µg/mL. Also, in data set [1], the “A fu MFC” value came to 1.3 µg/mL and the “A fu MIC” value was 1.3 µg/mL. Besides, the IC50 in data set [1] (Table 2, Aspergillus fumigatus) worked out at 0.9 µg/mL. The IC50 in data set [2] (setting [10]) came to 1.5 µg/mL. Besides, the MFC in data set [2] (setting [11]) stood at 5 µg/mL. For the same compound, in data set [2] (setting [12]), the MIC was determined as 2.5 µg/mL. Moreover, in the data set with MRSA (Table 2, read-out: MRSA IC50), the IC50 came to 1.5 µg/mL. For the same compound, the MIC in the data set with MRSA (Table 2, read-out: MRSA MIC) is 5 µg/mL. Besides, in data set [3] (setting [13]), the IC50 amounted to 3.5 µg/mL. In addition, the MFC in data set [3] (setting [14]) was > 20 µg/mL. Besides, in data set [3] (setting [15]), the MIC is 10 µg/mL.

For `C[n+]1cc2c(c3cc(C(F)(F)F)ccc3n2CCCCCC2CCCCC2)c2ccccc21.[I-]` [JRE-4-17-1, 10-Trifluoromethyl-7-(5-cyclohexyl-pentyl)-5-methyl-7H-indolo[2,3-c]quinolin-5-ium iodide], the melting point fell in the range of 231 to 233 °C. Moreover, the “TC50 Vero Cells” value in the data set with Vero Cells (Table 3) is >10 µg/mL. Also, in data set [1], the “A fu MFC” value turned out to be 10 µg/mL and the “A fu MIC” value stood at 10 µg/mL. Also, the IC50 in data set [1] (Table 3, Aspergillus fumigatus) was 3.5 µg/mL. Moreover, the IC50 in data set [2] (ATCC90113, Table 3, read-out: Cn IC50) stood at 3 µg/mL. In data set [2] (ATCC90113, Table 3, read-out: Cn MFC), the MFC amounted to 5 µg/mL. Moreover, in data set [2] (ATCC90113, Table 3, read-out: Cn MIC), the MIC worked out at 5 µg/mL. For the same compound, in the data set with MRSA (Table 3, read-out: MRSA IC50), the half-maximal inhibitory concentration (IC50) turned out to be 1.5 µg/mL. For the same compound, the MFC in the data set on MRSA (Table 3, read-out: MRSA MFC) was 5 µg/mL. Further, the MIC with MRSA (Table 3, read-out: MRSA MIC) was found to be 2.5 µg/mL. Moreover, in data set [3] (ATTC90028, Table 3, read-out: Ca IC50), the IC50 was 3.5 µg/mL. Moreover, in data set [3] (ATTC90028, Table 3, read-out: Ca MFC), the MFC turned out to be 10 µg/mL. In data set [3] (ATTC90028, Table 3, read-out: Ca MIC), the MIC was determined as 5 µg/mL.

`FC(F)(F)c1ccccc1Sc1cc2ccccc2[n+](CCCCCc2ccccc2)c1.[I-]`: the melting point is 227 to 229 °C.

Regarding `Clc1ccc2c(c1)[nH]c1c[n+](CCCCCC3CCCCC3)c3ccccc3c12.[I-]` [JRE-3-10-1], the “TC50 Vero Cells” value with Vero Cells (Table 3) was 9.3 µg/mL. In addition, the “A fu IC50” value in data set [1] (Table 3, Aspergillus fumigatus) is >20 µg/mL. Further, in data set [2] (Table 3), the “Cn IC50” value is >20 µg/mL, the “Cn MFC” value is recorded as “— ((-) = >20 μg/mL)” and the “Cn MIC” value is “— ((-) = >20 μg/mL)”. Moreover, in the data set with MRSA (Table 3), the “MRSA IC50” value is 5.0 µg/mL, the “MRSA MFC” value is “— ((-) = >20 μg/mL)” and the “MRSA MIC” value is 25 µg/mL. Further, in data set [3] (Table 3), the “Ca IC50” value is >20 µg/mL, the “Ca MFC” value was “— ((-) = >20 μg/mL)” and the “Ca MIC” value is recorded as “— ((-) = >20 μg/mL)”.

As to `FC(F)(F)c1ccccc1Sc1cc2ccccc2[n+](CCCCC[n+]2c3ccccc3cc3[nH]c4ccccc4c32)c1` [XYZ-IV-52], the melting point is 154 to 156 °C. Moreover, in the data set on Vero Cells (Table 1), the “TC50 Vero Cells” value was “NC (NC = Not toxic at 10 μg/mL)”. Besides, in data set [1], the “A fu MIC” value was found to be 10 µg/mL. Further, in data set [1] (Table 1, Aspergillus fumigatus), the half-inhibitory concentration (IC50) came out at 5 µg/mL. Besides, in data set [2] (setting [4]), the IC50 was determined as 4 µg/mL. The MFC in data set [2] (setting [5]) was > 20 µg/mL. For the same compound, the MIC in data set [2] (setting [6]) was determined as 10 µg/mL. Further, the IC50 in the data set with MRSA (Table 1, read-out: MRS IC50) turned out to be 2 µg/mL. In the data set on MRSA (Table 1, read-out: MRS MFC), the MFC was > 20 µg/mL. The MIC in the data set on MRSA (Table 1, read-out: MRS MIC) turned out to be 5 µg/mL. In data set [3] (setting [7]), the IC50 is > 20 µg/mL. In data set [3] (setting [8]), the MFC is > 20 µg/mL. In addition, the MIC in data set [3] (setting [9]) is > 20 µg/mL.

`C[n+]1cc(N(CCCCCC2CCCCC2)c2ccsc2)cc2ccccc21` [EVK-II-091]: the “TC50 Vero Cells” value in the data set on Vero Cells (Table 2) is >10 µg/mL. Besides, the “A fu MFC” value in data set [1] was determined as 5.0 µg/mL. For the same compound, in data set [1], the “A fu MIC” value came out at 1.3 µg/mL. Moreover, the IC50 in data set [1] (Table 2, Aspergillus fumigatus) came out at 0.5 µg/mL; in data set [2] (setting [10]) it was 0.45 µg/mL; in the data set on MRSA (Table 2, read-out: MRSA IC50), 0.45 µg/mL; in data set [3] (setting [13]) it was 0.8 µg/mL. Moreover, the figures for the MFC in data set [2] (setting [11]) and in data set [3] (setting [14]) were 5 µg/mL and > 20 µg/mL, respectively. Further, the MIC is 0.63 µg/mL in data set [2] (setting [12]); 0.63 µg/mL in the data set with MRSA (Table 2, read-out: MRSA MIC); 1.3 µg/mL in data set [3] (setting [15]).
